ChEMBL document CHEMBL1153891, “Bioactivity-guided isolation of cytotoxic constituents of Brucea javanica collected in Vietnam” (2009)

Experiments:
Lu1 = test: Cytotoxicity against human Lu1 cells after 2 days by sulforhodamine B assay; type: functional; settings: Lu1, 48 h, read-out: ED50 (the source's name)
MCF7 [1] = test: Cytotoxicity against human MCF7 cells after 2 days by sulforhodamine B assay; type: functional; settings: MCF7, 48 h, read-out: ED50 (the source's name)
MCF7 [2] = test: Ratio ED50 for human MCF7 cells to ED50 for human MCF7 cells in presence of 43 uM (-)-hydnocarpin; type: functional
MCF7 [3] = test: Cytotoxicity against human MCF7 cells after 2 days by sulforhodamine B assay in presence of 43 uM (-)-hydnocarpin; type: functional; settings: MCF7, 48 h, read-out: ED50 (the source's name)
LNCaP = test: Cytotoxicity against hormone-dependent human LNCAP cells after 2 days by sulforhodamine B assay; type: functional; settings: 48 h, read-out: ED50 (the source's name)
MDR [4] = test: Inhibition of MDR pump assessed as potentiation of bruceine A-induced cytotoxicity against human MCF7 cells at 20 ug/mL after 2 days by sulforhodamine B assay; type: cell-based
MDR [5] = test: Inhibition of MDR pump assessed as potentiation of bruceantin-induced cytotoxicity against human MCF7 cells at 20 ug/mL after 2 days by sulforhodamine B assay; type: cell-based

| SMILES | EC50 (Lu1) | EC50 (MCF7 [1]) | Ratio ED50 (MCF7 [2]) | EC50 (MCF7 [3]) | EC50 (LNCaP) | ED50 (MDR [4]) | ED50 (MDR [5]) |
| --- | --- | --- | --- | --- | --- | --- | --- |
| COC(=O)[C@@]12OC[C@]34[C@H]([C@@H](O)[C@@H]1O)[C@@]1(C)CC(=O)C(O)=C(C)[C@@H]1C[C@H]3OC(=O)[C@H](OC(=O)/C=C(\C)C(C)C)[C@@H]24 [BRUCEANTIN] | 0.012 µM | 0.002 µM | 7.4 | 0.00027 µM | 0.011 µM | – | – |
| CCCCCC(=O)O[C@@H]1C[C@]2(C)C(=CC[C@H]2[C@@H]2C[C@@H]([C@@H]3OC3(C)C)O[C@@H]2OC(C)=O)[C@]2(C)[C@H](O)C[C@H]3C(C)(C)C(=O)C=C[C@]3(C)[C@@H]12 [BRUCEAJAVANONE A] | > 10 µM | > 10 µM | – | – | > 10 µM | – | – |
| CC(=O)O[C@H]1C(=O)[C@@]2(C)[C@H]([C@H](OC(=O)c3ccccc3)[C@]3(O)C[C@H](OC(=O)[C@H](O)[C@@H](NC(=O)c4ccccc4)c4ccccc4)C(C)=C1C3(C)C)[C@]1(OC(C)=O)CO[C@@H]1C[C@@H]2O [PACLITAXEL] | > 10 µM | > 10 µM | – | – | > 10 µM | – | – |
| COc1cc([C@@H]2Oc3ccc(-c4cc(=O)c5c(O)cc(O)cc5o4)cc3O[C@H]2CO)ccc1O | > 10 µM | > 10 µM | – | – | > 10 µM | > 10 µM | > 10 µM |
| CCCCCC(=O)O[C@@H]1C[C@]2(C)C(=CC[C@H]2[C@@H]2C[C@@H]([C@@H]3OC3(C)C)O[C@@H]2OC(C)=O)[C@@]2(C)[C@H]1[C@@]1(C)C=CC(=O)C(C)(C)[C@@H]1C[C@H]2OC(C)=O | > 10 µM | > 10 µM | – | – | > 10 µM | – | – |
| C/C=C(\C)C(=O)O[C@@H]1C[C@]2(C)C(=CC[C@H]2[C@@H]2C[C@@H]([C@@H]3OC3(C)C)O[C@@H]2OC(C)=O)[C@@]2(C)[C@H]1[C@@]1(C)C=CC(=O)C(C)(C)[C@@H]1C[C@H]2OC(C)=O [BRUCEAJAVANONE B] | > 10 µM | > 10 µM | – | – | > 10 µM | – | – |
| C/C=C(\C)C(=O)O[C@@H]1C[C@]2(C)C(=CC[C@H]2[C@@H]2C[C@@H]([C@@H]3OC3(C)C)O[C@H]2OC)[C@]2(C)[C@H](OC(C)=O)C[C@H]3C(C)(C)C(=O)C[C@H](O)[C@]3(C)[C@@H]12 [BRUCEAJAVANONE C] | > 10 µM | > 10 µM | – | – | > 10 µM | – | – |
| CC[C@@]1(O)C(=O)OCc2c1cc1n(c2=O)Cc2cc3ccccc3nc2-1 [CAMPTOTHECIN] | > 10 µM | > 10 µM | – | – | > 10 µM | – | – |
| COC(=O)[C@@]12OC[C@]34[C@H]([C@@H](O)[C@@H]1O)[C@@]1(C)CC(=O)C(O)=C(C)[C@@H]1C[C@H]3OC(=O)[C@H](OC(=O)CC(C)C)[C@@H]24 [BRUCEINE A] | 0.079 µM | 0.015 µM | 10 | 0.0015 µM | 0.096 µM | – | – |
| C/C=C(\C)C(=O)O[C@@H]1C[C@@]2(C)[C@H]([C@@H]3C[C@@H]([C@@H]4OC4(C)C)O[C@@H]3OC(C)=O)CC[C@]2(C)[C@@H]2CC=C3C(C)(C)C(=O)C[C@H](O)[C@]3(C)[C@H]21 [BRUCEAJAVANINONE A] | > 10 µM | > 10 µM | – | – | > 10 µM | – | – |
